Test results published in US9693556B2, “Herbicidal pyridazinone derivatives” (SYNGENTA LIMITED, priority 2011, dated 2017).

Experiments:
Assay type in all cases: in vivo
[1] = test system: Amaranthus retoflexus (AMARE); assay: Pre-emergence herbicidal glasshouse test on Amaranthus retoflexus; settings: pre-emergence, 1000 g/h, evaluated after 13 days; for herbicidal damage, PRE Application AMARE: five point scale
In short: (§1)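 Application rate 1000 g/h, formulated in acetone/water (50:50) with 0.5% Tween 20 and sprayed onto pots sown 1 day (pre-emergence) or 8 days (post-emergence) earlier. Evaluation at 13 days rated damage from 1 (0-19%) to 5 (80-100%).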

[2] = test system: Ipomoea hederacea (IPOHE); assay: Post-emergence herbicidal glasshouse test on Ipomoea hederacea; settings: post-emergence, 1000 g/h, evaluated after 13 days; for herbicidal damage, POST Application IPOHE: five point scale
In short: as §1

[3] = test system: Ipomoea hederacea (IPOHE); assay: Pre-emergence herbicidal glasshouse test on Ipomoea hederacea; settings: pre-emergence, 1000 g/h, evaluated after 13 days; for herbicidal damage, PRE Application IPOHE: five point scale
In short: as §1

[4] = test system: Setaria faberi (SETFA); assay: Pre-emergence herbicidal glasshouse test on Setaria faberi; settings: pre-emergence, 1000 g/h, evaluated after 13 days; for herbicidal damage, PRE Application SETFA: five point scale
In short: as §1

[5] = test system: Echinochloa crus-galli (ECHCG); assay: Post-emergence herbicidal glasshouse test on Echinochloa crus-galli; settings: post-emergence, 1000 g/h, evaluated after 13 days; for herbicidal damage, POST Application ECHCG: five point scale
In short: as §1

[6] = test system: Solanum nigrum (SOLNI); assay: Pre-emergence herbicidal glasshouse test on Solanum nigrum; settings: pre-emergence, 1000 g/h, evaluated after 13 days; for herbicidal damage, PRE Application SOLNI: five point scale
In short: as §1

[7] = test system: Echinochloa crus-galli (ECHCG); assay: Pre-emergence herbicidal glasshouse test on Echinochloa crus-galli; settings: pre-emergence, 1000 g/h, evaluated after 13 days; for herbicidal damage, PRE Application ECHCG: five point scale
In short: as §1

[8] = test system: Amaranthus retoflexus (AMARE); assay: Post-emergence herbicidal glasshouse test on Amaranthus retoflexus; settings: post-emergence, 1000 g/h, evaluated after 13 days; for herbicidal damage, POST Application AMARE: five point scale
In short: as §1

[9] = test system: Setaria faberi (SETFA); assay: Post-emergence herbicidal glasshouse test on Setaria faberi; settings: post-emergence, 1000 g/h, evaluated after 13 days; for herbicidal damage, POST Application SETFA: five point scale
In short: as §1

[10] = test system: Alopecurus myosuroides (ALOMY); assay: Post-emergence herbicidal glasshouse test on Alopecurus myosuroides; settings: post-emergence, 1000 g/h, evaluated after 13 days; for herbicidal damage, POST Application ALOMY: five point scale
In short: as §1

[11] = test system: Alopecurus myosuroides (ALOMY); assay: Pre-emergence herbicidal glasshouse test on Alopecurus myosuroides; settings: pre-emergence, 1000 g/h, evaluated after 13 days; for herbicidal damage, PRE Application ALOMY: five point scale
In short: as §1

[12] = test system: Solanum nigrum (SOLNI); assay: Post-emergence herbicidal glasshouse test on Solanum nigrum; settings: post-emergence, 1000 g/h, evaluated after 13 days; for herbicidal damage, POST Application SOLNI: five point scale
In short: as §1

Structure (SMILES) | PRE Application AMARE herbicidal damage (five point scale) [1] | POST Application IPOHE herbicidal damage (five point scale) [2] | PRE Application IPOHE herbicidal damage (five point scale) [3] | PRE Application SETFA herbicidal damage (five point scale) [4] | POST Application ECHCG herbicidal damage (five point scale) [5] | PRE Application SOLNI herbicidal damage (five point scale) [6] | PRE Application ECHCG herbicidal damage (five point scale) [7] | POST Application AMARE herbicidal damage (five point scale) [8] | POST Application SETFA herbicidal damage (five point scale) [9] | POST Application ALOMY herbicidal damage (five point scale) [10] | PRE Application ALOMY herbicidal damage (five point scale) [11] | POST Application SOLNI herbicidal damage (five point scale) [12] | other results
Cc1ccc(Cl)c(-c2cnn(C)c(=O)c2O)c1 [Compound 1.101] | 1 (1=0-19% damage) | 1 (1=0-19% damage) | 1 (1=0-19% damage) | 1 (1=0-19% damage) | 1 (1=0-19% damage) | 1 (1=0-19% damage) | 1 (1=0-19% damage) | 1 (1=0-19% damage) | 1 (1=0-19% damage) | 1 (1=0-19% damage) | 1 (1=0-19% damage) | 1 (1=0-19% damage) | 
Cn1ncc(-c2ccc(C(F)(F)F)nc2OCc2cccc(Cl)c2)c(O)c1=O [Compound 4.009] | 3 (3=40-59% damage) | 1 (1=0-19% damage) | 1 (1=0-19% damage) | 1 (1=0-19% damage) | 1 (1=0-19% damage) | 1 (1=0-19% damage) | 1 (1=0-19% damage) | 4 (4=60-79% damage) | 1 (1=0-19% damage) | 1 (1=0-19% damage) | 1 (1=0-19% damage) | 5 (5=80-100% damage) | 
CCCC[S+]([O-])c1ccccc1-c1cnn(C)c(=O)c1O (stereo not drawn) [Compound 1.047] | 1 (1=0-19% damage) | 3 (3=40-59% damage) | 1 (1=0-19% damage) | 1 (1=0-19% damage) | 1 (1=0-19% damage) | 1 (1=0-19% damage) | 1 (1=0-19% damage) | 3 (3=40-59% damage) | 1 (1=0-19% damage) | 1 (1=0-19% damage) | 1 (1=0-19% damage) | 4 (4=60-79% damage) | 
Cc1c(-c2c(C(C)C)nn(C)c(=O)c2O)ccc(S(C)(=O)=O)c1C1=NOCC1 [Compound 2.024] | 5 (5=80-100% damage) | 5 (5=80-100% damage) | 4 (4=60-79% damage) | 4 (4=60-79% damage) | 5 (5=80-100% damage) | 4 (4=60-79% damage) | 5 (5=80-100% damage) | 5 (5=80-100% damage) | 5 (5=80-100% damage) | 5 (5=80-100% damage) | 5 (5=80-100% damage) | 5 (5=80-100% damage) | 
Cc1c(-c2cnn(C(C)(C)C)c(=O)c2O)ccc(S(C)(=O)=O)c1C1=NOCC1 [Compound 1.131] | 3 (3=40-59% damage) | 5 (5=80-100% damage) | 1 (1=0-19% damage) | 1 (1=0-19% damage) | 5 (5=80-100% damage) | 4 (4=60-79% damage) | 1 (1=0-19% damage) | 5 (5=80-100% damage) | 4 (4=60-79% damage) | 4 (4=60-79% damage) | 1 (1=0-19% damage) | 5 (5=80-100% damage) | 
COc1ccc(-c2cnn(C)c(=O)c2O)c(OC)n1 [Compound 1.153] |  |  |  |  |  |  |  |  |  |  |  |  | herbicidal damage, PRE Application AMARE [1]: 2 (2=20-39% damage); herbicidal damage, POST Application IPOHE [2]: 2 (2=20-39% damage); herbicidal damage, PRE Application IPOHE [3]: 3 (3=40-59% damage); herbicidal damage, PRE Application SETFA [4]: 1 (1=0-19% damage); herbicidal damage, POST Application ECHCG [5]: 1 (1=0-19% damage); herbicidal damage, PRE Application SOLNI [6]: 2 (2=20-39% damage); herbicidal damage, PRE Application ECHCG [7]: 2 (2=20-39% damage); herbicidal damage, POST Application AMARE [8]: 2 (2=20-39% damage); herbicidal damage, POST Application SETFA [9]: 1 (1=0-19% damage); herbicidal damage, POST Application ALOMY [10]: 1 (1=0-19% damage); herbicidal damage, PRE Application ALOMY [11]: 1 (1=0-19% damage); herbicidal damage, POST Application SOLNI [12]: 4 (4=60-79% damage)
Cn1ncc(-c2cccnc2OCC(F)F)c(O)c1=O [Compound 4.011] | 1 (1=0-19% damage) | 3 (3=40-59% damage) | 1 (1=0-19% damage) | 1 (1=0-19% damage) | 1 (1=0-19% damage) | 1 (1=0-19% damage) | 1 (1=0-19% damage) | 4 (4=60-79% damage) | 1 (1=0-19% damage) | 1 (1=0-19% damage) | 1 (1=0-19% damage) | 5 (5=80-100% damage) | 
CCn1ncc(-c2c(Cl)cccc2Cl)c(O)c1=O [Compound 1.011] | 1 (1=0-19% damage) | 2 (2=20-39% damage) | 1 (1=0-19% damage) | 1 (1=0-19% damage) | 2 (2=20-39% damage) | 1 (1=0-19% damage) | 1 (1=0-19% damage) | 4 (4=60-79% damage) | 2 (2=20-39% damage) | 2 (2=20-39% damage) | 1 (1=0-19% damage) | 4 (4=60-79% damage) | 
Cn1ncc(-c2ccc(S(C)(=O)=O)c(OCC(F)(F)F)c2Cl)c(O)c1=O [Compound 1.137] | 2 (2=20-39% damage) | 5 (5=80-100% damage) | 1 (1=0-19% damage) | 1 (1=0-19% damage) | 5 (5=80-100% damage) | 3 (3=40-59% damage) | 1 (1=0-19% damage) | 5 (5=80-100% damage) | 5 (5=80-100% damage) | 1 (1=0-19% damage) | 1 (1=0-19% damage) | 5 (5=80-100% damage) | 
Cn1ncc(-c2c(S(C)(=O)=O)ccc(Br)c2Br)c(O)c1=O [Compound 1.161] |  |  |  |  |  |  |  |  |  |  |  |  | herbicidal damage, PRE Application AMARE [1]: 3 (3=40-59% damage); herbicidal damage, POST Application IPOHE [2]: 2 (2=20-39% damage); herbicidal damage, PRE Application IPOHE [3]: 1 (1=0-19% damage); herbicidal damage, PRE Application SETFA [4]: 1 (1=0-19% damage); herbicidal damage, POST Application ECHCG [5]: 4 (4=60-79% damage); herbicidal damage, PRE Application SOLNI [6]: 1 (1=0-19% damage); herbicidal damage, PRE Application ECHCG [7]: 1 (1=0-19% damage); herbicidal damage, POST Application AMARE [8]: 5 (5=80-100% damage); herbicidal damage, POST Application SETFA [9]: 4 (4=60-79% damage); herbicidal damage, POST Application ALOMY [10]: 3 (3=40-59% damage); herbicidal damage, PRE Application ALOMY [11]: 1 (1=0-19% damage); herbicidal damage, POST Application SOLNI [12]: 4 (4=60-79% damage)
CCS(=O)(=O)c1ccccc1-c1cnn(C)c(=O)c1O [Compound 1.042] | 5 (5=80-100% damage) | 4 (4=60-79% damage) | 1 (1=0-19% damage) | 5 (5=80-100% damage) | 5 (5=80-100% damage) | 5 (5=80-100% damage) | 5 (5=80-100% damage) | 5 (5=80-100% damage) | 5 (5=80-100% damage) | 5 (5=80-100% damage) | 5 (5=80-100% damage) | 5 (5=80-100% damage) | 
